Assay results taken from patent US11149064B2, “Vasoactive polypeptides for smooth muscle relaxation” (Vanderbilt University, priority 2016, dated 2021).
Entries after “also recorded” stand apart in the source; their conditions may differ. Non-standard residues stand in square brackets, D forms with d. No end group written: not given here. *: point of attachment. Palmitoyl = CCCCCCCCCCCCCCCC(=O)*; pS = N[C@@H](COP(=O)(O)O)C(=O)O

What was measured:
rat aortic smooth muscle = assay: Vasorelaxation of pre-contracted, endothelium-denuded rat aortic rings in a muscle bath; assay type: cell-based; settings: for relaxation of rat aortic smooth muscle: phenylephrine-precontracted, endothelium-denuded rat aorta, escalating doses of polypeptide 0.1 to 1.0 mM (FIG. 2); for potency in vasorelaxation after chemical or formulatory modification of VASP1: compared with VASP1 (FIGS. 6 and 7)
Protocol: (§1) Freshly isolated rat aorta denuded of endothelium were suspended in a muscle bath and force generated were recorded. Phenylephrine-precontracted tissues were treated with either sodium nitroprusside (1 nM) or escalating doses of the polypeptides indicated (0.1 to 1.0 mM). Contractile response was defined by stress, which was calculated using the force generated by the tissues. [10^5 Newtons (N)/m^2]−force (g)×0.0987/area, where area is equal to the wet weight [(mg)/length (mm at maximal length)] divided by 1.055). Percent relaxation were determined as a change to the maximal phenylephrine-induced contraction. Data are reported as mean responses±standard error of the mean. n=3-17.
FIGS. 4A and B show graphs illustrating the effects of nimodipine on polypeptide induced vasorelaxation in phenylephrine precontracted rat aortic smooth muscle. Freshly isolated rat aorta denuded of endothelium were suspended in a muscle bath and force generated were recorded. Phenylephrine-precontracted tissues were treated either with escalating doses of the calcium channel blocker nimodipine (NIMO; 0.01 to 1 uM), the VASP1 polypeptide (0.1 to 1.0 mM), nimodipine (0.1 μM) followed by the VASP1 polypeptide (0.25 mM) [NIMO/VASP1], the VASP1 polypeptide (0.25 mM) followed by nimodipine (0.1 μM) [VASP1/NIMO], or simultaneous addition of nimodipine (0.1 μM) plus the VASP1 polypeptide (0.25 mM) [NIMO+VASP1]. Contractile response was defined by stress, which was calculated using the force generated by the tissues. [10^5 Newtons (N)/m^2]=force (g)×0.0987/area, where area is equal to the wet weight [(mg)/length (mm at maximal length)] divided by 1.055). (A) Percent relaxation were determined as a change to the maximal phenylephrine-induced contraction. Data are reported as mean responses±standard error of the mean. n=3-4. (B). Representative tracings of force generated in response to phenylephrine, nimodipine and the VASP1 polypeptides.
Freshly isolated rat aorta denuded of endothelium were suspended in a muscle bath and force generated were recorded. (A) Endothelin 1 (ET)-precontracted tissues were treated either with escalating doses of the calcium channel blocker nimodipine (NIMO; 0.001 to 0.1 uM), the VASP1 polypeptide (0.1 to 1.0 mM). (B) ET-precontracted tissues were treated with VASP1 polypeptide alone (0.25 mM), nimodipine alone (0.01 or 0.1 uM), nimodipine (0.01 or 0.1 uM) followed by the VASP1 polypeptide (0.25 mM), [NIMO/VASP1], the VASP1 polypeptide (0.25 mM) followed by nimodipine (0.01 or 0.1 uM), [VASP1/NIMO], or simultaneous addition of nimodipine (0.1 uM) plus the VASP1 polypeptide (0.25 mM) [NIMO+VASP1]. Contractile response was defined by stress, which was calculated using the force generated by the tissues. [10^5 Newtons (N)/m^2]=force (g)×0.0987/area, where area is equal to the wet weight [(mg)/length (mm at maximal length)] divided by 1.055). (A) Percent relaxation were determined as a change to the maximal phenylephrine-induced contraction. Data are reported as mean responses±standard error of the mean. n=2-12.
as §1, with “bath,” for “bath”, “polypeptides or polypeptide-containing nanoparticles” for “polypeptides”, “(N)/m^2]=force” for “(N)/m^2]−force”, “n=2-6.” for “n=3-17.”
Freshly isolated rat aorta denuded of endothelium were suspended in a muscle bath and force generated were recorded. […]

airway smooth muscle = assay: Relaxation of carbachol-precontracted porcine bronchial rings in a muscle bath; assay type: cell-based; settings: polypeptides 0.1 to 1.0 mM (FIG. 8)
Protocol: (§2) Bronchial rings were isolated from fresh porcine lung, suspended in a muscle bath, and force generated were recorded. Carbachol-precontracted tissues were treated with escalating doses of the polypeptides indicated (0.1 to 1.0 mM). Contractile response was defined by stress, which was calculated using the force generated by the tissues. [10^5 Newtons (N)/m^2]=force (g)×0.0987/area, where area is equal to the wet weight [(mg)/length (mm at maximal length)] divided by 1.055). Percent relaxation were determined as a change to the maximal carbachol-induced contraction. Data are reported as mean responses±standard error of the mean. n=2-4.
as §2, with “Freshly isolated porcine bronchial” for “Bronchial”, “were” for “were isolated from fresh porcine lung,”, “bath.” for “bath, and force generated were recorded.”, “with” for “with escalating doses of”, “alone (−nife) or 0.1 uM nifedipine followed by the polypeptides (+nife).” for “indicated (0.1 to 1.0 mM).”, “n=1-2.” for “n=2-4.”
Bronchial rings were suspended in the muscle bath and equilibrated for 3 hours at a basal tension of 1 gram. Rings were then contracted with the agonist carbachol (150 nM) and then relaxed with cumulative doses of the polypeptides (0.1 to 1.0 mM).
Porcine bronchial rings were suspended in the muscle bath. Tissues were treated with channel blocker alone, polypeptide alone, or in combination. The results of these study are illustrated in FIG. 9.
Rat aortae were isolated from euthanized female Sprague-Dawley rats. Porcine bronchial rings were isolated from lung obtained from euthanized female Yorkshire pigs.

[1] = phenylephrine or endothelin-1 pre-contracted rat aortic rings

Row | Substance | relaxation of rat aortic smooth muscle (rat aortic smooth muscle) | relaxation of airway smooth muscle (airway smooth muscle) | other results
1 | IRQTADRWRVSLDVNLTVK [SEQ ID NO: 4, peptide analogue of HSP27] | directly cause smooth muscle relaxation | directly cause smooth muscle relaxation | 
2 | KLRKV(pS)K (KLRKV[pS]K) [SEQ ID NO: 9, control peptide without transduction domain] | do not directly cause relaxation; also recorded: exception |  | 
3 | KLRKV(pS)KLTVK (KLRKV[pS]KLTVK) [SEQ ID NO: 8, phosphopeptide analogue of VASP] | directly cause smooth muscle relaxation | directly cause smooth muscle relaxation | 
4 | YARAAARQARAA(pS)GVAVSDG (YARAAARQARAA[pS]GVAVSDG) [SEQ ID NO: 1, phosphopeptide analogue of cofilin] | directly cause smooth muscle relaxation | directly cause smooth muscle relaxation | 
5 | YARAAARQARAA(pS)GVTVSDEVI (YARAAARQARAA[pS]GVTVSDEVI) [SEQ ID NO: 2, phosphopeptide analogue of cofilin] | directly cause smooth muscle relaxation | directly cause smooth muscle relaxation | 
6 | YARAAARQARAIRQTADRWRVSLDVN [SEQ ID NO: 3, peptide analogue of HSP27] | directly cause smooth muscle relaxation | directly cause smooth muscle relaxation | 
7 | YARAAARQARAK(pS)RVLKK (YARAAARQARAK[pS]RVLKK) [SEQ ID NO: 10, control peptide] | do not directly cause relaxation |  | relaxation of rat aortic smooth muscle (rat aortic smooth muscle; listed as scrVASP1): exception
8 | YARAAARQARAKLRKV(pS)K (YARAAARQARAKLRKV[pS]K) [SEQ ID NO: 5, phosphopeptide analogue of VASP] | directly cause smooth muscle relaxation | directly cause smooth muscle relaxation | vasorelaxation in combination with calcium channel blocker nimodipine (rat aortic smooth muscle; phenylephrine or endothelin-1 pre-contracted rat aortic rings, VASP1 0.25 mM with nimodipine 0.01 or 0.1 uM (FIGS. 4A-5B)): works in concert with calcium channel blocker, nimodipine, to enhance vasorelaxation; relaxation of rat aortic smooth muscle (rat aortic smooth muscle; listed as VASP1): sequence specific
9 | YARAAARQARAKLRKV(pS)KQEEA (YARAAARQARAKLRKV[pS]KQEEA) [SEQ ID NO: 6, phosphopeptide analogue of VASP] | directly cause smooth muscle relaxation | directly cause smooth muscle relaxation | 
10 | YARAAARQARAKLRKV(pS)KQEEASG (YARAAARQARAKLRKV[pS]KQEEASG) [SEQ ID NO: 7, phosphopeptide analogue of VASP] | directly cause smooth muscle relaxation | directly cause smooth muscle relaxation | 
11 | YARAAARQARA{K(palm)}GGKLRKV(pS)K (YARAAARQARAK(Palmitoyl)GGKLRKV[pS]K) [SEQ ID NO: 12] |  |  | potency in vasorelaxation after chemical or formulatory modification of VASP1 (rat aortic smooth muscle; [1]): directly cause smooth muscle relaxation with enhanced potency
12 | YARAAARQARA{K(palm)}LRKV(pS)K (YARAAARQARAK(Palmitoyl)LRKV[pS]K) [SEQ ID NO: 11] |  |  | potency in vasorelaxation after chemical or formulatory modification of VASP1 (rat aortic smooth muscle; [1]): directly cause smooth muscle relaxation with enhanced potency
